This data set can be described thus: Human HepG2 cell viability assay in 384 well format. It is filed as toxicity, cell-based. Further details: dose 125 nL, time 70.5 hour; cytotoxicity at 70.5 h: concentration not given beside the values. The note with it: HepG2 cells, read-out: Inhibition.
With `Cc1noc(C)c1CN1CC[C@H]2OCC[C@@]2(C(=O)N2CCCO2)C1`, the cytotoxicity at 70.5 h is -7.09%.

Take `O=C(NCc1ccccc1)N1CCC(Oc2ncccc2Cl)CC1`: the cytotoxicity at 70.5 h was 11%.

In the case of `COc1ccc(OCCN2CCC(c3ccnn3CCO)CC2)cc1`, the cytotoxicity at 70.5 h is -5.41%.

On to `Cc1nsc(NC2CCN(c3ccccc3OC(F)F)C2=O)n1` (centres undefined), for which the cytotoxicity at 70.5 h is 9.92%.

Take `Cc1nc2c(c(NCCc3nc4c(s3)CCCC4)n1)CCNCC2`: the cytotoxicity at 70.5 h is -9.11%.

For `CN(C)S(=O)(=O)c1csc(C(=O)N2CCSCC2)c1`, the cytotoxicity at 70.5 h is -1.94%.

`COc1ccc(Cl)cc1NC(=O)CNc1ccn(CC(N)=O)n1`: the cytotoxicity at 70.5 h worked out at 20.1%.

As for `CC1CCc2nn(CCNC(=O)Cc3ccccc3F)c(=O)cc2C1` (centres undefined), the cytotoxicity at 70.5 h is 0.912%.

On to `CCCc1nnsc1C(=O)NCC(O)c1ccc(SC)cc1` (centres undefined), for which the cytotoxicity at 70.5 h was found to be 28.8%.

As to `O=c1cc2c(nn1CN1CCSCC1)CCC2`, the cytotoxicity at 70.5 h is -19.6%.

Take `CCc1nnc2n1CCN(Cc1ccc3c(c1)OCCO3)C2`: the cytotoxicity at 70.5 h is 15.4%.

As to `CNC(=O)C(C)CN(C)C(=O)Nc1cc(-n2cccc2)ccc1F` (centres undefined), the cytotoxicity at 70.5 h was -3.24%.

As to `CCOc1ccc(NC(=O)Nc2cc(N3CCCCC3)ncn2)cc1`, the cytotoxicity at 70.5 h was -1.28%.

In the case of `O=C(Cc1cccs1)NC1(C(=O)NCC2CC2)CCCC1`, the cytotoxicity at 70.5 h is -7.33%.

On to `COc1ncccc1CN1CCn2c(C(=O)N3CCCC3)cnc2C1`, for which the cytotoxicity at 70.5 h was -5.02%.

Turning to `Cc1cccc(C(=O)NCCCN2CCN(c3ccccc3)CC2)c1`, the cytotoxicity at 70.5 h amounted to 7.06%.

Regarding `O=C1CCCc2cc(S(=O)(=O)NCc3ccccn3)ccc2N1`, the cytotoxicity at 70.5 h is -11%.

As for `COc1cccc(CC(C)NC(=O)c2ccc(CNC(C)=O)cc2)c1` (centres undefined), the cytotoxicity at 70.5 h was -2.82%.

Consider `Cn1cc(CN2CCCC(O)C2)c(-c2ccccc2F)n1` (centres undefined), for which the cytotoxicity at 70.5 h was -6.51%.

Consider `CCCN1CCN(C(=O)c2ccc(Cn3cc(Br)cn3)cc2)CC1`, for which the cytotoxicity at 70.5 h is -7.06%.

Regarding `CCCN1C[C@H](NC(=O)c2cc(C)no2)[C@@H](c2ccc(OC)cc2)C1`, the cytotoxicity at 70.5 h was 0.817%.

Turning to `Cc1cnn(-c2ccc(S(N)(=O)=O)cc2F)c1`, the cytotoxicity at 70.5 h turned out to be 20%.

As to `Cc1cnn(CC2CN(Cc3nc4ccccc4c(=O)[nH]3)CCO2)c1` (centres undefined), the cytotoxicity at 70.5 h is -4.67%.

For `COc1ccc(OC)c(NC(=O)c2nc3ccccc3n(C)c2=O)c1`, the cytotoxicity at 70.5 h is -7.65%.

In the case of `CCC(C)(C)c1cc(-c2c(C)nn(CCO)c2C)c(C#N)c(N)n1`, the cytotoxicity at 70.5 h amounted to 12.5%.

Take `COCc1ccccc1C(=O)OCc1noc(C)n1`: the cytotoxicity at 70.5 h is -15.9%.

In the case of `COCc1ccc(CNC(=O)C2=NN(c3ccccc3)C(=O)CN2)cc1`, the cytotoxicity at 70.5 h is -12.2%.

In the case of `CCN(Cc1ccncc1)C(=O)c1cn(CCC2CCCCC2)nn1`, the cytotoxicity at 70.5 h was -16%.

As to `O=C1CCc2cc(S(=O)(=O)NC(=O)c3ccc4c(c3)OCO4)ccc2N1`, the cytotoxicity at 70.5 h is -15.2%.

As for `CN(C)[C@H]1CCCCN(Cc2cnc(NCc3ccccc3)nc2)C1`, the cytotoxicity at 70.5 h is -1.39%.

For `CCN1C(=O)CCCC12CCCN(C(=O)c1ccoc1C)C2` (centres undefined), the cytotoxicity at 70.5 h is -10.9%.

`CN(Cc1ccncc1)C(CO)c1cccc(F)c1` (centres undefined): the cytotoxicity at 70.5 h was -27.2%.

As to `CN(CCCn1cnc2c(N)ncnc21)Cc1ccccc1`, the cytotoxicity at 70.5 h is -4.43%.

In the case of `Cn1ncc2c(NCCOCc3ccccc3)nc(C3CCCC3)nc21`, the cytotoxicity at 70.5 h was -3.35%.

In the case of `CN(C)CCCn1ccnc1C1CCN(C(=O)Cc2cccnc2)CC1`, the cytotoxicity at 70.5 h came to 9.19%.

Consider `Cc1ncc2c(n1)CN(CCOCC(F)(F)F)CC2`, for which the cytotoxicity at 70.5 h is -4.14%.

On to `CNc1nc2ncc(Cl)cc2cc1C#N`, for which the cytotoxicity at 70.5 h is -2.12%.

As to `Cc1cnc2n(c1=O)CC(C(=O)NCc1ccccc1Cl)CS2` (centres undefined), the cytotoxicity at 70.5 h came to 2.42%.

For the compound `CCn1cc(NS(=O)(=O)c2ccc(Br)s2)c(C(N)=O)n1`, the cytotoxicity at 70.5 h was 21.8%.

With `COc1cc(C(=O)O)cc(I)c1OCC(=O)NCCc1ccccc1`, the cytotoxicity at 70.5 h is -4.57%.

Consider `COCCOC[C@]1(CNCc2cccc(OC)c2)C[C@@H](O)[C@@H](O)C1`, for which the cytotoxicity at 70.5 h amounted to 0.877%.

On to `CC(=O)NC1CCCN(C(=O)Nc2nnc(C(C)C)s2)C1` (centres undefined), for which the cytotoxicity at 70.5 h turned out to be 0.76%.

Regarding `COc1nc2c(cc1C(=O)N(C)Cc1n[nH]c3c1CCCC3)CCC2`, the cytotoxicity at 70.5 h was -6.28%.

On to `Nc1nnc(SCC(=O)c2cc3c(cc2Cl)NC(=O)C3)s1`, for which the cytotoxicity at 70.5 h was -25.4%.

Take `O=C(COCc1ccccc1Cl)N1CCN(c2cnccn2)CC1`: the cytotoxicity at 70.5 h is -6.52%.

With `Cc1nnc(CN(Cc2cccc(Cl)c2)C(C)C)o1`, the cytotoxicity at 70.5 h was -16.1%.

In the case of `N#Cc1ccc(OCCN2CCc3cncnc3C2)cc1`, the cytotoxicity at 70.5 h was 0.4%.

Turning to `CCOC(=O)C1CCN(C(=O)c2cc(OCC)c3ccoc3c2)CC1`, the cytotoxicity at 70.5 h was -10.7%.

Consider `O=C1CC2(CCNCC2)C(=O)N1Cc1ccc(F)cc1`, for which the cytotoxicity at 70.5 h worked out at 29.9%.

With `Cc1occc1CNC(=O)N(CCCO)C1CCc2ccccc21` (centres undefined), the cytotoxicity at 70.5 h was -1.74%.

Consider `CCOC(=O)c1sc2ccsc2c1CNC(=O)COC`, for which the cytotoxicity at 70.5 h came out at 3.32%.

Consider `CC1=N[C@@]2(CC[C@@H]3CN(S(=O)(=O)CC(C)C)C[C@@H]32)C(=O)N1C`, for which the cytotoxicity at 70.5 h is -10.5%.

As to `Cc1nc(C)n(CC2CCCN2Cc2nc(C3CC3)no2)n1` (centres undefined), the cytotoxicity at 70.5 h was -5.43%.

Take `CCOc1ccccc1CNC(=O)c1cnn(CC)c1C(F)(F)F`: the cytotoxicity at 70.5 h is 17.5%.

Consider `O=S(=O)(c1ccc2c(c1)CCC2)N1CCCC(Cn2cncn2)C1` (centres undefined), for which the cytotoxicity at 70.5 h came to 0.224%.

On to `Cc1c(O)oc(-c2ccc(Br)cc2)nc1=O`, for which the cytotoxicity at 70.5 h worked out at 53.6%.

Take `CC(c1ccco1)N(C(=O)NCc1ccon1)C1CC1` (centres undefined): the cytotoxicity at 70.5 h came to 56.7%.

`CCc1ccc(CN2CCN(Cc3ncc[nH]3)[C@H]3CS(=O)(=O)C[C@H]32)nc1`: the cytotoxicity at 70.5 h is -6.57%.

In the case of `Cc1oc(C)c(C(=O)NCc2cccc(NC(=O)CN(C)C)c2)c1C`, the cytotoxicity at 70.5 h is -8.3%.

As to `O=C(c1cncc(F)c1)N1CCC(c2ncc[nH]2)CC1`, the cytotoxicity at 70.5 h was -7.04%.

Regarding `CC(CNC(=O)c1cn(-c2ccccc2)nn1)Cn1cccn1` (centres undefined), the cytotoxicity at 70.5 h is 13.9%.

With `Cc1ccc(NC(=O)N2CC(C(=O)NC(C)C)C3(CCOCC3)C2)cc1` (centres undefined), the cytotoxicity at 70.5 h is -6.28%.

Turning to `CC(O)C1CCN(Cc2cnc3c(-c4ccccc4)cnn3c2)CC1` (centres undefined), the cytotoxicity at 70.5 h is -7.53%.

On to `CN(Cc1cc(-c2cccnc2)no1)C(=O)c1cccn1C`, for which the cytotoxicity at 70.5 h was found to be 0.783%.

Take `Cc1nn2c(NC(=O)CSc3ncccn3)csc2nc1=O`: the cytotoxicity at 70.5 h is -12.6%.

With `CC(C)CCN(C)Cc1ccccc1-c1nc(C(C)C)cc(=O)[nH]1`, the cytotoxicity at 70.5 h is 0.496%.

As to `Cc1nnc(CN(C)CC(=O)NCCc2ccc(F)cc2)n1C`, the cytotoxicity at 70.5 h is -5.46%.

`Cc1cncc(C2CCN(C(=O)c3ccc(-n4cccn4)nc3)CC2)n1`: the cytotoxicity at 70.5 h was -2.8%.

In the case of `Brc1cnc(NCCCOCC2CCOC2)nc1` (centres undefined), the cytotoxicity at 70.5 h was -5.54%.

On to `COc1ccc(CN2CCC3(CCCN(c4ncc(F)cn4)C3)C2)cc1` (centres undefined), for which the cytotoxicity at 70.5 h is 50.3%.

For `CCC(CO)N(Cc1ccccn1)C(=O)c1ccc(C)c(Cl)c1` (centres undefined), the cytotoxicity at 70.5 h was -5.65%.

`N#Cc1cccc(CS(=O)(=O)NC(Cc2ccccc2)C(N)=O)c1` (centres undefined): the cytotoxicity at 70.5 h was -13.1%.

Turning to `O=C(c1ccncc1F)N1C[C@H]2CC[C@@H]1CN(Cc1cccnc1)C2`, the cytotoxicity at 70.5 h is -4.95%.

As to `COc1ccc(C(=O)NCC(=O)N(Cc2ccsc2)C2CC2)cc1OC`, the cytotoxicity at 70.5 h came to 30.2%.

As for `CSC(C)C(=O)N1CCCN(Cc2cscn2)CC1` (centres undefined), the cytotoxicity at 70.5 h worked out at 17.9%.

Turning to `CCN(CC)S(=O)(=O)c1ccc(CNC(=O)c2cc(C)on2)cc1`, the cytotoxicity at 70.5 h is -2.55%.

In the case of `Cc1cccnc1N1CC2(CCN(Cc3cccnc3)C2)C1`, the cytotoxicity at 70.5 h stood at 16.3%.

For `COC(=O)N1CCCCC1C(=O)N1CCC(c2ccncc2)CC1` (centres undefined), the cytotoxicity at 70.5 h was -3.09%.

On to `COCCN1CCC2(CC1)CC(OCC1CC1)c1ccc(C)cc12` (centres undefined), for which the cytotoxicity at 70.5 h worked out at 5.78%.

`CNC(=O)COC(=O)c1ccoc1CN1c2ccccc2CC1C` (centres undefined): the cytotoxicity at 70.5 h was 0.373%.

In the case of `CCn1cc(NC(=O)Nc2ccc3c(c2)OCCO3)cn1`, the cytotoxicity at 70.5 h was -5.76%.

`Cc1nc(C(C)NC(=O)c2cn(CCC3CCCCC3)nn2)n[nH]1` (centres undefined): the cytotoxicity at 70.5 h is -23.9%.

Consider `Cc1oc(-c2ccccc2)nc1CN1CCC(c2ccnn2C)CC1`, for which the cytotoxicity at 70.5 h was -78.8%.

With `CC(=O)NCCNC(=O)Nc1ccc(C)cc1OCc1ccccc1`, the cytotoxicity at 70.5 h is -1.2%.

Turning to `CCn1cc(S(=O)(=O)Nc2nc3c(s2)CC(C)CC3)cn1` (centres undefined), the cytotoxicity at 70.5 h is -6.65%.

On to `O=C(c1ccc(S(=O)(=O)NCC(F)F)cc1)N1C[C@H]2CNC[C@H]2C1`, for which the cytotoxicity at 70.5 h was -1.24%.

Consider `COc1cccc(SCC(=O)N2CCC(N3CCCC(O)C3)CC2)c1` (centres undefined), for which the cytotoxicity at 70.5 h was -2.74%.

In the case of `CCCN(CC)C(=O)c1cc2c(c3ccccc3n2C)n1C(=O)N(C)C`, the cytotoxicity at 70.5 h stood at 4.9%.

As for `CSCC(=O)N1C[C@H]2CC[C@@H]1CN(C1Cc3ccccc3C1)C2`, the cytotoxicity at 70.5 h was -9.76%.

As for `Cn1cc(CN2C[C@@H]3OCCN(CC4CCCC4)[C@@H]3C2)cn1`, the cytotoxicity at 70.5 h was -7.97%.

In the case of `O=S(=O)(NCCCn1cncn1)c1ccc2c(c1)CCCC2`, the cytotoxicity at 70.5 h was -5.74%.

For `O=C(NCCCn1ccnc1)N1CCCC1c1ccsc1` (centres undefined), the cytotoxicity at 70.5 h was 24.9%.

On to `COc1ccc(NC(=O)Cn2nc(C)c(C(C)=O)c2C)cc1`, for which the cytotoxicity at 70.5 h is 2.67%.

Regarding `COc1ccnc(C(=O)N2CCCC(c3noc(C)n3)C2)c1` (centres undefined), the cytotoxicity at 70.5 h was -12.8%.

As to `CC(C)c1cccc(-n2cc(O)c(C(=O)NCCCn3cccn3)n2)c1`, the cytotoxicity at 70.5 h was -5.65%.

For the compound `CC(=O)c1c(F)cccc1N1CCC(NS(=O)(=O)c2ccccc2)CC1`, the cytotoxicity at 70.5 h stood at 1.15%.

As to `CC1CCN(C(=O)c2sccc2-n2cnnn2)CC1`, the cytotoxicity at 70.5 h is -4.67%.

Consider `CCCC1(C(=O)O)CCCN(C(=O)c2cc(Cl)ccc2F)C1` (centres undefined), for which the cytotoxicity at 70.5 h was -13.1%.

Consider `Cc1nccc(-c2cccc(NCC(=O)N3CCc4sccc4C3)c2)n1`, for which the cytotoxicity at 70.5 h turned out to be 2.9%.
